Experiments:
human TREK-1 (hTREK-1) = molecular target: T1, human TREK-1 (hTREK-1) (Homo sapiens, UniProt O95069); assay: TREK-1 thallium flux assay (CHO-K1 cells stably expressing hTREK-1); format: cell-based; settings: human TREK-1, thallium flux; read-out: h TREK-1 Tl+ IC50
T1 construct: expressed in transfected cells
T1 sequence (O95069 1-426): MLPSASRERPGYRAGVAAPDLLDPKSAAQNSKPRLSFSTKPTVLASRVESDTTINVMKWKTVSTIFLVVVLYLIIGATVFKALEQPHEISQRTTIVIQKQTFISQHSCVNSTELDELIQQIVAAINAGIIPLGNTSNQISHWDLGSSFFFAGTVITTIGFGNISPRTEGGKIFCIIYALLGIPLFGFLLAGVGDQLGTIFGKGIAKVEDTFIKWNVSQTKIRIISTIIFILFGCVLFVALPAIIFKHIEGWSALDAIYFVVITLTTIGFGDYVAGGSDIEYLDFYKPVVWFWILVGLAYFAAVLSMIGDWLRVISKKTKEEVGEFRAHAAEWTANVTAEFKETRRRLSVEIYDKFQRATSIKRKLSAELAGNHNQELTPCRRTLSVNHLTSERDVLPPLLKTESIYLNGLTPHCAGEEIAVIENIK
Experimental: Procedures for Biological Experiments
TREK-1 Thallium flux assay
CHO-K1 cells stably expressing hTREK-1 were cultured in T225 flask. The cells were loaded with FluxOR dye and plated in 384 well plate at the experiment day. Test compounds or control compound (tert-butyl (3-((4-(benzyloxy)-2-methylphenyl)carbamoyl)-4-chlorophenyl)carbamate) or 0.3% DMSO (vehicle control) were added directly to the cell plates and incubated for 10 min, and then treated with thallium stimulus buffer to initiate thallium flux.
To measure the efficacy and potency of test compounds, the change in fluorescence intensity (ΔRatio) and % inhibition were calculated using the following equations:
ΔRatio = (fluorescence intensity at 25 seconds after thallium addition)/(average of fluorescent intensity before thallium addition)
(§1) 0.3% DMSO - ΔRatio of 10 μM control compound)}x100
(§2) % inhibition vs compound concentration were plotted in XLfit and calculated IC50.
CHO-K1 cells stably expressing human TREK-1 (hTREK-1) were cultured in T225 flask.
The cells were loaded with FluxOR dye and plated in 384 well plate at the experiment day. Test compounds or control compound (tert-butyl (3-((4-(benzyloxy)-2-methylphenyl)carbamoyl)-4-chlorophenyl)carbamate) or 0.3% DMSO (vehicle control) which were prepared on separate plates were added to the cell plates and incubated for 10 min, and then the cells with test compounds or […]
chlorophenyl)carbamate) or 0.3% DMSO (vehicle control) were treated with thallium stimulus buffer to initiate thallium flux. To measure the efficacy and potency of test compounds, the change in fluorescence intensity (ΔRatio) and % inhibition were calculated using the following equations: […]

[1] = Liver microsome intrinsic clearance, human; format: in vitro ADME; settings: pH 7.4; human liver microsomes, predicted intrinsic clearance; read-out: LMS CLINT human
Experimental: (§3) were incubated in 100 mM potassium phosphate pH 7.4 buffer with 3 mM MgCl2 at 37 °C with constant shaking. After a 5 min preincubation, the reaction was initiated by the addition of NADPH (1 mM). At selected time intervals (0, 3, 7, 15, 25, and 45 min), aliquots were taken and subsequently placed into a 96-well plate containing cold acetonitrile with internal standard (50 ng/mL carbamazepine). Plates were then centrifuged at 3000 rcf (4 °C) for 10 min, and the supernatant was transferred to a separate 96-well plate and diluted 1:1 with water for LC/MS/MS analysis. The in vitro half-life ( 1/2, min, Eq. 1), intrinsic clearance (CLint, mL/min/kg, Eq. 2), and subsequent predicted hepatic clearance (CLhep, mL/min/kg, Eq. 3) was determined employing the […]
(§4) where k represents the slope from linear regression analysis of the natural log percent remaining of a test compound as a function of incubation time […]
(§5) (2) CLint = in vitroT x mg microsomes x gram liver x kg body wt ascale-up factors: of 20 (human) or 45 (rat) […]
(§6) where Qh (hepatic blood flow, mL/min/kg) is 21 (human) or 70 (rat).
(§7) LC/MS/MS Bioanalysis of Samples from Plasma Protein Binding and Intrinsic Clearance […]
(§8) Samples were analyzed on a Thermo Electron TSQ Quantum Ultra triple quad mass spectrometer (San Jose, CA) via electrospray ionization (ESI) with two Themo Electron Accella pumps (San Jose, CA), and a Leap Technologies CTC PAL autosampler (Carrboro, NC). Analytes were […]

ChromatoLogD = format: physicochemical
[2] = Liver microsome intrinsic clearance, mouse; format: in vitro ADME; settings: pH 7.4; mouse liver microsomes, predicted intrinsic clearance; read-out: LMS CLINT mouse
[3] = Plasma protein binding, rat; format: in vitro ADME; settings: rat, plasma, pH 7.4, rat plasma, bound; read-out: PPB rat (converted)
Experimental: (§9) Plasma protein binding and Brain homogenate binding: Determination of fraction unbound (f u) in plasma was conducted in vitro via equilibrium dialysis using HTDialysis (HTD) membrane plates. The top half of the plate was filled with 100 uL of Dubelco’s Phosphate Buffered Saline, pH 7.4 (DPBS). Compounds were diluted into plasma from each species (5 µM final concentration), which was aliquoted in triplicate to the ‘bottom half’ of the prepared HTD plate wells. The HTD plate was sealed and incubated for 6 hours at 37 °C. Following incubation, each well (both top and bottom halves) were transferred (20 µL) to the corresponding wells of a 96-shallow-well (V-bottom) plate. The daughter plates were then matrix-matched (DPBS side wells received equal volume of plasma, and plasma side wells received equal volume of DPBS), and extraction solution (120 µL; acetonitrile containing 50 nM carbamazepine as IS) was added to all wells of both daughter plates to precipitate protein and extract test article. The plates were then sealed and centrifuged (3500 rcf) for 10 minutes at ambient temperature. Supernatant (60 µL) from each well of the daughter plates was then transferred to the corresponding wells of new daughter plates (96-shallow-well, V bottom) containing water (Milli-Q, 60 µL/well), and the plates were sealed in preparation for LC-MS/MS analysis (see LC-MS/MS analysis method below).
(§10) The unbound fraction (f u) was calculated following the equation below, and mean values for each species were calculated from 3 replicates. […]
(§11) Fraction unbound for both plasma and brain samples was determined using Equation 4.
(§12) Equation 4 Determination of fraction unbound in plasma. […]

[4] = Liver microsome intrinsic clearance, rat; format: in vitro ADME; settings: pH 7.4; rat liver microsomes, predicted intrinsic clearance; read-out: LMS CLINT rat
Experimental: as §3, §4, §5, §6, §7, §8

[5] = Plasma protein binding, mouse; format: in vitro ADME; settings: mouse, plasma, pH 7.4, mouse plasma, bound; read-out: PPB mouse (converted)
Experimental: as §9, §10, §11, §12

human TREK-2 (hTREK-2) = molecular target: T2, human TREK-2 (hTREK-2) (Homo sapiens, UniProt P57789); assay: TREK-2 thallium flux assay (HEK293 cells stably expressing hTREK-2); format: cell-based; settings: human TREK-2, thallium flux; read-out: h TREK-2 Tl+ IC50
T2 construct: expressed in transfected cells
T2 sequence (P57789 1-538): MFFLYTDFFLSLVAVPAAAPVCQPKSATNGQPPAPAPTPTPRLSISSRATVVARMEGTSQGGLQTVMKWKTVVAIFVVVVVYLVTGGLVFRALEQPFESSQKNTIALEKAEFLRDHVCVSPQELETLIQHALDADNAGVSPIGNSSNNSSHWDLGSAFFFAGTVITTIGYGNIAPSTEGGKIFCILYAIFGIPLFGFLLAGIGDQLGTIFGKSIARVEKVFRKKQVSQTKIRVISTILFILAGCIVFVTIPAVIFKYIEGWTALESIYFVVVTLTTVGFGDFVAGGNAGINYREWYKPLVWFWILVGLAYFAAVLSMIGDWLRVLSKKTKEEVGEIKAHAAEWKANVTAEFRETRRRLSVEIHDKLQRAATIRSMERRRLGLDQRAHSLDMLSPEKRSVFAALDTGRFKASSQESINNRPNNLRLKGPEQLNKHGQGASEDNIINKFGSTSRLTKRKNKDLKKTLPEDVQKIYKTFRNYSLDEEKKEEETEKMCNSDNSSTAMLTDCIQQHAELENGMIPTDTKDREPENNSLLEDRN
Experimental: as §1, §2
TREK-2 Thallium flux assay
HEK293 cells stably expressing human TREK-2 (hTREK-2) are plated in 384-well plates, cultured overnight, loaded with Thallos dye the following day. Test compounds or control compound (tert-butyl (3-((4-(benzyloxy)-2-methylphenyl)carbamoyl)-4-chlorophenyl)carbamate) or 0.3% DMSO (vehicle control) which are prepared on separate plates are added to the cell plates and incubated for 10 min, and then the cells were treated with thallium stimulus buffer to initiate […]
To measure the efficacy and potency of test compounds, the change in fluorescence intensity (ΔRatio) and % inhibition are calculated using the following equations: […]

Molecule `Cc1cc(C#Cc2ccccc2)cnc1NC(=O)c1c(Cl)cnn1CC1COCCO1` (centres unmarked) [Compound 8, 1-((1,4-Dioxan-2-yl)methyl)-4-chloro-N-(3-methyl-5-(phenylethynyl)pyridin-2-yl)-1H-pyrazole-5-carboxamide] has an IC50 (human TREK-1 (hTREK-1)) of 670 nM.
Work on `Cc1cc(C#Cc2ccccc2)cnc1NC(=O)c1cc(-c2noc(C3CCOC3)n2)ccc1Cl` (centres unmarked) [Compound 13b, 2-Chloro-N-(3-methyl-5-(phenylethynyl)pyridin-2-yl)-5-(5-(tetrahydrofuran-3-yl)-1,2,4-oxadiazol-3-yl)benzamide] yielded a CLint scaled at 1 µM [1] of 71 mL/min/kg, a chromatographic logD (ChromatoLogD) of 5.01 and a CLint scaled at 1 µM [2] of 68 mL/min/kg. It also gave an IC50 (human TREK-1 (hTREK-1)) of 48 nM.
`Cc1cc(C#Cc2ccccc2)cnc1NC(=O)c1cc(NC(=O)OC(C)(C)C)ccc1Cl` [Compound 13e] showed a chromatographic logD (ChromatoLogD) of 5.15 and an IC50 (human TREK-1 (hTREK-1)) of 140 nM.
`Cc1cc(C#Cc2ccccc2)cnc1NC(=O)c1c(Cl)cnn1CC1CCOCC1` [Compound 14b, 4-Chloro-N-(3-methyl-5-(phenylethynyl)pyridin-2-yl)-1-((tetrahydro-2H-pyran-4-yl)methyl)-1H-pyrazole-5-carboxamide] gave an IC50 (human TREK-1 (hTREK-1)) of 200 nM.
In the case of `Cc1cc(C#Cc2ccccc2)cnc1NC(=O)c1c(Cl)cnn1-c1ccc2c(cnn2C)c1` [Compound 15c, 4-Chloro-1-(1-methyl-1H-indazol-5-yl)-N-(3-methyl-5-(phenylethynyl)pyridin-2-yl)-1H-pyrazole-5-carboxamide], the IC50 (human TREK-1 (hTREK-1)) is reported as 84 nM and the fraction unbound at 6 h, 5 µM [3] is reported as 0.002.
`Cc1cc(C#Cc2ccccc2)cnc1NC(=O)c1c(Cl)cnn1CCCC#N` [Compound 15d, 4-Chloro-1-(3-cyanopropyl)-N-(3-methyl-5-(phenylethynyl)pyridin-2-yl)-1H-pyrazole-5-carboxamide] gave a CLint scaled at 1 µM [1] of 9 mL/min/kg, a CLint scaled at 1 µM [4] of 30 mL/min/kg and a fraction unbound at 6 h, 5 µM [5] of 0.001.
Work on `CC(=O)N1C[C@H]2C[C@H](n3ncc(Cl)c3C(=O)Nc3ncc(C#Cc4ccccc4)cc3C)C[C@H]2C1` [Compound 15g, 1-((3aR,5s,6aS)-2-Acetyloctahydrocyclopenta[c]pyrrol-5-yl)-4-chloro-N-(3-methyl-5-(phenylethynyl)pyridin-2-yl)-1H-pyrazole-5-carboxamide] yielded a fraction unbound at 6 h, 5 µM [3] of 0.009.
For `CC(=O)N1CCC(n2ncc(Cl)c2C(=O)Nc2ncc(C#Cc3ccccc3)cc2C)C(F)C1` (centres unmarked) [Compound 16a, 1-(1-Acetyl-3-fluoropiperidin-4-yl)-4-chloro-N-(3-methyl-5-(phenylethynyl)pyridin-2-yl)-1H-pyrazole-5-carboxamide], the IC50 (human TREK-1 (hTREK-1)) was 98 nM and the IC50 (human TREK-2 (hTREK-2)) was 280 nM.
For `CC(=O)N1CC[C@@H](n2ncc(Cl)c2C(=O)Nc2ncc(C#Cc3ccccc3)cc2C)[C@H](F)C1` [Compound 16b, 1-((3R,4R)-1-Acetyl-3-fluoropiperidin-4-yl)-4-chloro-N-(3-methyl-5-(phenylethynyl)pyridin-2-yl)-1H-pyrazole-5-carboxamide], the CLint scaled at 1 µM [1] was 13 mL/min/kg, the CLint scaled at 1 µM [4] was 94 mL/min/kg and the IC50 (human TREK-1 (hTREK-1)) was 96 nM. The IC50 (human TREK-2 (hTREK-2)) was 290 nM.
With `CC(=O)N1CC[C@@H](n2ncc(Cl)c2C(=O)Nc2ncc(C#Cc3ccccc3)cc2C)[C@@H](F)C1` [Compound 16c, 1-((3S,4R)-1-Acetyl-3-fluoropiperidin-4-yl)-4-chloro-N-(3-methyl-5-(phenylethynyl)pyridin-2-yl)-1H-pyrazole-5-carboxamide] the IC50 (human TREK-1 (hTREK-1)) was 160 nM and the IC50 (human TREK-2 (hTREK-2)) was 530 nM.
In the case of `CC(=O)N1CC[C@H](n2ncc(Cl)c2C(=O)Nc2ncc(C#Cc3ccccc3)cc2C)[C@H](F)C1` [Compound 16d, 1-((3R,4S)-1-Acetyl-3-fluoropiperidin-4-yl)-4-chloro-N-(3-methyl-5-(phenylethynyl)pyridin-2-yl)-1H-pyrazole-5-carboxamide], the IC50 (human TREK-2 (hTREK-2)) is reported as 530 nM.
With `CC(=O)N1CC[C@H](n2ncc(Cl)c2C(=O)Nc2ncc(C#Cc3ccccc3)cc2F)[C@H](F)C1` [Compound 16e, 1-((3R,4S)-1-Acetyl-3-fluoropiperidin-4-yl)-4-chloro-N-(3-fluoro-5-(phenylethynyl)pyridin-2-yl)-1H-pyrazole-5-carboxamide] the IC50 (human TREK-1 (hTREK-1)) was 70 nM and the IC50 (human TREK-2 (hTREK-2)) was 330 nM.
Molecule `CC(=O)N1CC[C@H](n2ncc(Cl)c2C(=O)Nc2ncc(C#Cc3ccccc3)cc2F)[C@@H](F)C1` [Compound 16f, 1-((3S,4S)-1-Acetyl-3-fluoropiperidin-4-yl)-4-chloro-N-(3-fluoro-5-(phenylethynyl)pyridin-2-yl)-1H-pyrazole-5-carboxamide] has an IC50 (human TREK-2 (hTREK-2)) of 470 nM.
